Reference: US20100331311A1 (priority 2005, published 2010)

How the values were obtained:
[1] = tested on: retinal ganglion cells (RGCs); assay type: in vivo, Sprague-Dawley rats
[2] = tested on: retinal ganglion cells (RGCs); design: species or system Brown Norway rats; settings: rat, in vivo, ip, 3.5 mg/kg
Description: Two weeks after ocular hypertension surgery, animals were subjected to daily treatment with galantamine ˜3.5 mg/kg body weight, intraperitoneal administration (i.p.). Analysis of RGC survival was carried out at 5 weeks after ocular hypertension surgery.
Therefore, two weeks after ocular hypertension surgery, animals received daily intraperitoneal (i.p) injections of galantamine at a dose of 3.5 mg/kg b.w. as shown in FIG. 2.
All surgeries were performed in adult male Brown Norway rats, retired breeders, between 10-12 months of age (300-400 g), under general anesthesia by intraperitoneal injection of 1 ml/kg b.w. standard rat cocktail consisting of ketamine (100 mg/ml), xylazine (20 mg/ml) and acepromazine (10 mg/ml).
Seven days after DiI application, the time required for labeling the entire RGC population, animals were subjected to ocular hypertension surgery as described below. […]
Analysis of RGC survival was carried out at 5 weeks after ocular hypertension surgery. Quantification of RGC bodies or axons was always performed in duplicate and in a masked fashion. […] Under fluorescence microscopy, DiI-labeled or FluoroGold-labeled neurons were counted in 12 standard retinal areas as previously described (Cheng et al. 2002; Sapieha et al. 2003).

[3] = tested on: glaucomatous and normal (contralateral) eyes; design: species or system Brown Norway rats; settings: rat, in vivo, 3.5 mg/kg
Description: IOP from glaucomatous and normal (contralateral) eyes was measured in awake animals using a calibrated tonometer (TonoPen XL, Medtronic Solan, Jacksonville, Fla.). Ten to fifteen consecutive readings per eye were taken and averaged to obtain an accurate daily IOP measurement. IOP was measured daily for two weeks after ocular hypertension surgery, and then every other day for the entire duration of the experiment. The mean IOP (mm Hg±S.E.M.) per eye was the average of all IOP readings since the onset of pressure elevation. The maximum IOP measured in each individual eye, glaucomatous or normal contralateral eye, was defined as the peak IOP and this value was used to estimate the mean peak IOP for each group. The delta positive integral IOP was calculated as the area under the IOP curve in the glaucomatous eye minus that of the fellow normal eye from ocular hypertension surgery to euthanasia. Integral IOP represents the total, cumulative IOP exposure throughout the entire experiment.
For this purpose, Applicant measured intraocular pressure every other day for entire duration of daily treatment with galantamine up to 35 days after ocular hypertension (OHT) surgery.

[4] = human, in vivo; cited from earlier work
[5] = mouse, in vivo; cited from earlier work
[6] = target: alpha-7 nicotinic acetylcholine receptor (Rattus norvegicus, UniProt Q05941); design: species or system Sprague-Dawley rats; settings: in vivo
Sequence of alpha-7 nicotinic acetylcholine receptor (Q05941 23-502 limits assumed): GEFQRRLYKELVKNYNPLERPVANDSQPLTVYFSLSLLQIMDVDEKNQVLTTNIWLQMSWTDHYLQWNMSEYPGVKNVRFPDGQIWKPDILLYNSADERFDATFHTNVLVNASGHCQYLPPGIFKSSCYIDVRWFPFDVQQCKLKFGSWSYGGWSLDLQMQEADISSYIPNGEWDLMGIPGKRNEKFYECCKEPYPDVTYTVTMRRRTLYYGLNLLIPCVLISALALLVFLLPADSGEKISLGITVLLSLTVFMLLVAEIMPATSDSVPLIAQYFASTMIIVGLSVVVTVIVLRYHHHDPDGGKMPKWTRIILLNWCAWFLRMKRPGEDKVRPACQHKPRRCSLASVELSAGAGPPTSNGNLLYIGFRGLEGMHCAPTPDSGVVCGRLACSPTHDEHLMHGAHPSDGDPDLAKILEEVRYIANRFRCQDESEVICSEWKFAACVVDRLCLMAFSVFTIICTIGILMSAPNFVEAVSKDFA

With `COc1cc2c(cc1OC)C(=O)C(CC1CCN(Cc3ccccc3)CC1)C2` (stereo not shown) [Donepezil, donepezil] the “neuroprotection of RGCs after axotomy, galantamine vs donepezil (in words)” value ([1]; 3.5 mg/kg b.w., single intraocular injection, 1 week after optic nerve axotomy) was “neuroprotective after axotomy”.

In the case of `COc1ccc2c3c1O[C@H]1C[C@@H](O)C=C[C@@]31CCN(C)C2` [Galantamine, galantamine], the RGCs preserved [2] is reported as 90%, the “Integral IOP” value [3] is reported as 321 ± 10 mm Hg and the “Mean IOP Control” value [3] is reported as 23.7 ± 0.2 mm Hg. For the same compound, the “Mean IOP Glaucoma” value [3] was 40.7 ± 0.8 mm Hg, the RGCs remaining alive ([1]; rat, in vivo) was roughly 30% and the “survival of axotomized RGCs” value ([1]; rat, in vivo) was greater than 75%. For the same compound, the “estimated brain concentration of functionally available galantamine” value [4] was 500 to 1200 nM and the brain levels [5] was 200 to 1000 nM.

With Alpha-bungarotoxin the “block of the total neuroprotective effect of galantamine” value [6] was 10-15%.
